Results: patent US8802597B2, “Herbicidal pyrimidines” (E I du Pont de Nemours and Company, priority 2003, dated 2014)
Read-outs that look alike come from different tables or passages of the source.

Key:
Assay in all cases: Test C pre/postemergence
Type in all cases: in vivo
[1] = system: bermudagrass (Cynodon dactylon); conditions: Cynodon dactylon; for pest or weed control at 31 g/ha: 31 g ai/ha; for pest or weed control at 62 g/ha: 62 g ai/ha; for pest or weed control at 125 g/ha: 125 g ai/ha; for pest or weed control at 250 g/ha: 250 g ai/ha
Method in brief: (§1)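 Percent control is a visual rating (0 none, 100 complete) taken against untreated plants after 12 to 14 days of greenhouse growth. Applications were made preemergence to seeded pots and postemergence to plants at the 1- to 4-leaf stage, in a non-phytotoxic surfactant-containing solvent.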

[2] = system: cocklebur (Xanthium strumarium); conditions: Xanthium strumarium; for pest or weed control at 31 g/ha: 31 g ai/ha; for pest or weed control at 62 g/ha: 62 g ai/ha; for pest or weed control at 125 g/ha: 125 g ai/ha
Method in brief: as §1

[3] = system: common (oilseed) sunflower (Helianthus annuus); conditions: Helianthus annuus, pre-emergence, Preemergence, read-out: Plant response rating, Sunflower
Method in brief: as §1

[4] = system: common ragweed (Ambrosia elatior); conditions: Ambrosia artemisiifolia; for pest or weed control at 31 g/ha: 31 g ai/ha; for pest or weed control at 62 g/ha: 62 g ai/ha; for pest or weed control at 125 g/ha: 125 g ai/ha; for pest or weed control at 250 g/ha: 250 g ai/ha
Method in brief: as §1

[5] = system: eastern black nightshade (Solanum ptycanthum); conditions: Solanum, pre-emergence, Preemergence, read-out: Plant response rating, Nightshade
Method in brief: as §1

[6] = system: goosegrass (Eleusine indica); conditions: Eleusine indica; for pest or weed control at 31 g/ha: 31 g ai/ha; for pest or weed control at 62 g/ha: 62 g ai/ha; for pest or weed control at 125 g/ha: 125 g ai/ha; for pest or weed control at 250 g/ha: 250 g ai/ha
Method in brief: as §1

[7] = system: johnsongrass (Sorghum halepense); conditions: Sorghum halepense, post-emergence, Postemergence
Method in brief: as §1

[8] = post-emergence, Postemergence, scale 0 to 100 (0 no effect, 100 complete control), read-out: Bermudagrass plant response rating
[9] = pre-emergence, Preemergence, scale 0 to 100, 0 no effect, 100 complete control, read-out: Plant response rating, Bermudagrass
[10] = pre-emergence, Preemergence, scale 0 to 100, read-out: Plant response rating, Bermudagrass
[11] = post-emergence, Postemergence, scale 0 to 100 (0 no effect, 100 complete control), read-out: Cocklebur plant response rating
[12] = pre-emergence, Preemergence, scale 0 to 100, 0 no effect, 100 complete control, read-out: Plant response rating, Cocklebur
[13] = 31 g ai/ha, scale 0 to 100, 0 no effect, 100 complete control
[14] = 62 g ai/ha, scale 0 to 100, 0 no effect, 100 complete control
[15] = post-emergence, Postemergence, scale 0 to 100 (0 no effect, 100 complete control), read-out: Ragweed plant response rating
[16] = pre-emergence, Preemergence, scale 0 to 100, 0 no effect, 100 complete control, read-out: Plant response rating, Ragweed
[17] = pre-emergence, Preemergence, scale 0 to 100, read-out: Plant response rating, Ragweed
[18] = post-emergence, Postemergence, scale 0 to 100 (0 no effect, 100 complete control), read-out: Goosegrass plant response rating
[19] = pre-emergence, Preemergence, scale 0 to 100, 0 no effect, 100 complete control, read-out: Plant response rating, Goosegrass
[20] = pre-emergence, Preemergence, scale 0 to 100, read-out: Plant response rating, Goosegrass

CCOC(=O)c1nc(-c2ccc(Cl)cc2)nc(N)c1Cl [Compound 64, ethyl 6-amino-5-chloro-2-(4-chlorophenyl)-4-pyrimidinecarboxylate]
pest or weed control at 31 g/ha ([1]; post-emergence, Postemergence, read-out: Plant response rating (scale of 0 to 100), Bermudagrass): 20%
pest or weed control at 62 g/ha [1, 8]: 60%
pest or weed control at 125 g/ha [1, 8]: 65%
pest or weed control at 250 g/ha ([1]; post-emergence, Postemergence, scale 0 to 100, read-out: Plant response rating, Bermudagrass): 70%
pest or weed control at 31 g/ha [1, 9]: 0%
pest or weed control at 62 g/ha [1, 9]: 0%
pest or weed control at 125 g/ha [1, 10]: 20%
pest or weed control at 250 g/ha [1, 10]: 20%
pest or weed control at 31 g/ha ([2]; post-emergence, Postemergence, read-out: Plant response rating (scale of 0 to 100), Cocklebur): 90%
pest or weed control at 62 g/ha [2, 11]: 90%
pest or weed control at 125 g/ha [2, 11]: 100%
pest or weed control at 31 g/ha [2, 12]: 0%
pest or weed control at 62 g/ha [2, 12]: 0%
pest or weed control at 125 g/ha ([2]; pre-emergence, Preemergence, scale 0 to 100, read-out: Plant response rating, Cocklebur): 5%
pest or weed control at 250 g/ha ([2]; pre-emergence, Preemergence, 250 g ai/ha, scale 0 to 100, read-out: Plant response rating, Cocklebur): 30%
pest or weed control at 31 g/ha [3, 13]: 0%
pest or weed control at 62 g/ha [3, 14]: 0%
pest or weed control at 125 g/ha ([3]; 125 g ai/ha, scale 0 to 100): 30%
pest or weed control at 250 g/ha ([3]; 250 g ai/ha, scale 0 to 100): 85%
pest or weed control at 31 g/ha ([4]; post-emergence, Postemergence, read-out: Plant response rating (scale of 0 to 100), Ragweed): 75%
pest or weed control at 62 g/ha [4, 15]: 80%
pest or weed control at 125 g/ha [4, 15]: 85%
pest or weed control at 250 g/ha ([4]; post-emergence, Postemergence, scale 0 to 100, read-out: Plant response rating, Ragweed): 90%
pest or weed control at 31 g/ha [4, 16]: 85%
pest or weed control at 62 g/ha [4, 16]: 85%
pest or weed control at 125 g/ha [4, 17]: 95%
pest or weed control at 250 g/ha [4, 17]: 100%
pest or weed control at 31 g/ha [5, 13]: 5%
pest or weed control at 62 g/ha [5, 14]: 85%
pest or weed control at 125 g/ha ([5]; 125 g ai/ha, scale 0 to 100): 85%
pest or weed control at 250 g/ha ([5]; 250 g ai/ha, scale 0 to 100): 95%
pest or weed control at 31 g/ha ([6]; post-emergence, Postemergence, read-out: Plant response rating (scale of 0 to 100), Goosegrass): 35%
pest or weed control at 62 g/ha [6, 18]: 35%
pest or weed control at 125 g/ha [6, 18]: 60%
pest or weed control at 250 g/ha ([6]; post-emergence, Postemergence, scale 0 to 100, read-out: Plant response rating, Goosegrass): 70%
pest or weed control at 31 g/ha [6, 19]: 0%
pest or weed control at 62 g/ha [6, 19]: 0%
pest or weed control at 125 g/ha [6, 20]: 0%
pest or weed control at 250 g/ha [6, 20]: 75%
pest or weed control at 31 g/ha ([7]; 31 g ai/ha, read-out: Plant response rating (scale of 0 to 100), Johnsongrass): 60%
pest or weed control at 62 g/ha ([7]; 62 g ai/ha, scale 0 to 100 (0 no effect, 100 complete control), read-out: Johnsongrass plant response rating): 80%
pest or weed control at 125 g/ha ([7]; 125 g ai/ha, scale 0 to 100 (0 no effect, 100 complete control), read-out: Johnsongrass plant response rating): 85%
pest or weed control at 250 g/ha ([7]; 250 g ai/ha, scale 0 to 100, read-out: Plant response rating, Johnsongrass): 85%
